Assay results published in ChEMBL document CHEMBL1275550, “In vitro activity of doripenem, a carbapenem for the treatment of challenging infections caused by gram-negative bacteria, against recent clinical isolates from the United States” (2008).
In brackets after ≈: the same amount, converted by molar mass.

Key:
Pseudomonas aeruginosa [1] = test: Antimicrobial activity against imipenem non-susceptible Pseudomonas aeruginosa assessed as susceptible isolate by broth microdilution method; type: functional
Enterobacteriaceae [2] = test: Antimicrobial activity against Ceftazidime non-susceptible Enterobacteriaceae assessed as intermediate isolate by broth microdilution method; type: functional
Pseudomonas aeruginosa [3] = test: Antimicrobial activity against Pseudomonas aeruginosa isolated from ICU patient by broth microdilution method; type: functional
Klebsiella pneumoniae [4] = test: Antimicrobial activity against ESBL producing Klebsiella pneumoniae assessed as intermediate isolate by broth microdilution method; type: functional
Pseudomonas aeruginosa [5] = test: Antimicrobial activity against imipenem susceptible Pseudomonas aeruginosa assessed as intermediate isolate by broth microdilution method; type: functional
Pseudomonas aeruginosa [6] = test: Antimicrobial activity against Ceftazidime susceptible Pseudomonas aeruginosa assessed as intermediate isolate by broth microdilution method; type: functional
Pseudomonas aeruginosa [7] = test: Antimicrobial activity against Pseudomonas aeruginosa isolated from non-ICU patient assessed as resistant isolate by broth microdilution method
Escherichia coli [8] = test: Antimicrobial activity against Non-ESBL Escherichia coli assessed as susceptible isolate by broth microdilution method; type: functional
Proteus mirabilis [9] = test: Antimicrobial activity against ESBL producing Proteus mirabilis by broth microdilution method; type: functional
Klebsiella pneumoniae [10] = test: Antimicrobial activity against Non-ESBL Klebsiella pneumoniae assessed as intermediate isolate by broth microdilution method; type: functional
Pseudomonas aeruginosa [11] = test: Antimicrobial activity against Ceftazidime susceptible Pseudomonas aeruginosa assessed as susceptible isolate by broth microdilution method; type: functional
Proteus mirabilis [12] = test: Antimicrobial activity against Non-ESBL Proteus mirabilis assessed as intermediate isolate by broth microdilution method; type: functional
Citrobacter [13] = test: Antimicrobial activity against Citrobacter with derepressed AmpC beta-lactamsae assessed as susceptible isolate by broth microdilution method; type: functional
Pseudomonas aeruginosa [14] = test: Antimicrobial activity against Pseudomonas aeruginosa isolated from patient by broth microdilution method
Escherichia coli [15] = test: Antimicrobial activity against ESBL producing Escherichia coli assessed as resistant isolate by broth microdilution method; type: functional
Pseudomonas aeruginosa [16] = test: Antimicrobial activity against Pseudomonas aeruginosa isolated from non-ICU patient by broth microdilution method; type: functional
Acinetobacter [17] = test: Antimicrobial activity against imipenem non-susceptible Acinetobacter assessed as susceptible isolate by broth microdilution method; type: functional
Proteus mirabilis [18] = test: Antimicrobial activity against Non-ESBL Proteus mirabilis assessed as susceptible isolate by broth microdilution method; type: functional
Acinetobacter [19] = test: Antimicrobial activity against imipenem susceptible Acinetobacter assessed as susceptible isolate by broth microdilution method; type: functional
Pseudomonas aeruginosa [20] = test: Antimicrobial activity against Ceftazidime susceptible Pseudomonas aeruginosa by broth microdilution method; type: functional
Klebsiella pneumoniae [21] = test: Antimicrobial activity against ESBL producing Klebsiella pneumoniae assessed as resistant isolate by broth microdilution method; type: functional
Serratia marcescens [22] = test: Antimicrobial activity against Ceftazidime susceptible Serratia marcescens assessed as susceptible isolate by broth microdilution method; type: functional
Citrobacter [23] = test: Antimicrobial activity against Citrobacter with derepressed AmpC beta-lactamsae assessed as intermediate isolate by broth microdilution method; type: functional
Pseudomonas aeruginosa [24] = test: Antimicrobial activity against Pseudomonas aeruginosa isolated from non-ICU patient by broth microdilution method
Escherichia coli [25] = test: Antimicrobial activity against ESBL producing Escherichia coli assessed as susceptible isolate by broth microdilution method; type: functional
Pseudomonas aeruginosa [26] = test: Antimicrobial activity against imipenem susceptible Pseudomonas aeruginosa assessed as susceptible isolate by broth microdilution method; type: functional
Serratia marcescens [27] = test: Antimicrobial activity against Ceftazidime non-susceptible Serratia marcescens assessed as intermediate isolate by broth microdilution method; type: functional
Pseudomonas aeruginosa [28] = test: Antimicrobial activity against Ceftazidime non-susceptible Pseudomonas aeruginosa assessed as resistant isolate by broth microdilution method; type: functional
Proteus mirabilis [29] = test: Antimicrobial activity against ESBL producing Proteus mirabilis assessed as susceptible isolate by broth microdilution method; type: functional
Pseudomonas aeruginosa [30] = test: Antimicrobial activity against Pseudomonas aeruginosa isolated from ICU patient assessed as resistant isolate by broth microdilution method
Escherichia coli [31] = test: Antimicrobial activity against ESBL producing Escherichia coli assessed as intermediate isolate by broth microdilution method; type: functional
Enterobacteriaceae [32] = test: Antimicrobial activity against Ceftazidime non-susceptible Enterobacteriaceae by broth microdilution method; type: functional
Klebsiella pneumoniae [33] = test: Antimicrobial activity against Non-ESBL Klebsiella pneumoniae assessed as susceptible isolate by broth microdilution method; type: functional
Acinetobacter [34] = test: Antimicrobial activity against imipenem susceptible Acinetobacter assessed as resistant isolate by broth microdilution method; type: functional
Escherichia coli [35] = test: Antimicrobial activity against Non-ESBL Escherichia coli assessed as intermediate isolate by broth microdilution method; type: functional
Enterobacteriaceae [36] = test: Antimicrobial activity against Ceftazidime non-susceptible Enterobacteriaceae assessed as resistant isolate by broth microdilution method; type: functional

CO/N=C(\C(=O)N[C@@H]1C(=O)N2C(C(=O)[O-])=C(C[N+]3(C)CCCC3)CS[C@H]12)c1csc(N)n1
Activity (Pseudomonas aeruginosa [1]): 72.5% | Activity (Enterobacteriaceae [2]): 5.6% | MIC50 (Pseudomonas aeruginosa [3]): 4 µg/mL (≈ 8.32 µM) | MIC90 (Pseudomonas aeruginosa [3]): 16 µg/mL (≈ 33.3 µM) | Activity (Klebsiella pneumoniae [4]): 2.3% | Activity (Pseudomonas aeruginosa [5]): 7% | Activity (Pseudomonas aeruginosa [6]): 3.8% | Activity (Pseudomonas aeruginosa [7]): 5.1% | Activity (Escherichia coli [8]): 99.8% | MIC (Proteus mirabilis [9]): 1 µg/mL (≈ 2.08 µM) | Activity (Klebsiella pneumoniae [10]): 0.2% | Activity (Pseudomonas aeruginosa [11]): 95.2% | Activity (Proteus mirabilis [12]): 0.2% | Activity (Citrobacter [13]): 100% | Activity (Pseudomonas aeruginosa [14]): 8.2% | Activity (Escherichia coli [15]): 56.7% | MIC50 (Pseudomonas aeruginosa [16]): 4 µg/mL (≈ 8.32 µM) | MIC90 (Pseudomonas aeruginosa [16]): 16 µg/mL (≈ 33.3 µM) | Activity (Acinetobacter [17]): 2% | Activity (Proteus mirabilis [18]): 99.7% | Activity (Acinetobacter [19]): 73.1% | MIC50 (Pseudomonas aeruginosa [20]): 2 µg/mL (≈ 4.16 µM) | MIC90 (Pseudomonas aeruginosa [20]): 8 µg/mL (≈ 16.6 µM) | Activity (Klebsiella pneumoniae [21]): 29.5% | Activity (Serratia marcescens [22]): 100% | Activity (Citrobacter [23]): 0% | Activity (Pseudomonas aeruginosa [24]): 86.8% | Activity (Escherichia coli [25]): 40% | Activity (Pseudomonas aeruginosa [26]): 90.7% | Activity (Serratia marcescens [27]): 10% | Activity (Pseudomonas aeruginosa [28]): 26.4% | Activity (Proteus mirabilis [29]): 100% | Activity (Pseudomonas aeruginosa [30]): 6.5% | Activity (Escherichia coli [31]): 3.3% | MIC50 (Enterobacteriaceae [32]): 2 µg/mL (≈ 4.16 µM) | MIC90 (Enterobacteriaceae [32]): 32 µg/mL (≈ 66.6 µM) | Activity (Klebsiella pneumoniae [33]): 99.7% | Activity (Acinetobacter [34]): 15.1% | Activity (Escherichia coli [35]): 0.1% | Activity (Enterobacteriaceae [36]): 12%
